# According to US9511086B2, “Method for improving immune system function by administering agents that inhibit DNA-dependent protein kinase-directed apoptosis” (The Board of Trustees of the Leland Stanford Junior …, priority 2010, dated 2016):
# Key:
# [1] = biological target: cyclin-dependent kinase 2 (Homo sapiens, UniProt P24941); conditions: concentrations of up to 100 μM; cited from earlier work
# [2] = system: CD4+CD45RO− T cells from RA patients; test: T-cell apoptosis by flow cytometry staining for PI, RA T cells; type: cell-based, human
# Description: (§1) FIG. 5. Inhibition of DNA-PKcs activity protects RA T cells from apoptosis. CD4+CD45RO− T cells were isolated from 6 control donors and 7 RA patients. Cells were maintained in culture without stimulation for 48 h and then were treated with the DNA-PKcs inhibitor IC86621 (50 nM, 100 nM) or vehicle for 24 h. Cells were harvested and (A) T-cell apoptosis was measured by flow cytometry staining for PI. Representative cytometric data from one patient and one control are shown. (B) Frequencies of PI-positive T-cells in the absence and presence of the DNA-PKcs inhibitor from 6 controls and 7 RA patients are presented as mean±SEM.
# FIG. 6. Silencing of the DNA-PKcs gene reduces apoptosis in RA T cells. CD4+CD45RO− T cells were purified from 3 control donors and 3 RA patients and transfected with control or DNA-PKcs specific siRNA oligonucleotides by nucleofection. (A, B) Twenty-four hours after transfection, DNA-PKcs transcript levels were quantified by qPCR, and DNA-PKcs protein levels were detected by Western blotting. (C) T-cell apoptosis was analyzed by staining for PI. Representative data from one patient and one control are shown. (D) Cell apoptosis from 3 control and 3 RA samples are presented as mean±SEM.
# FIG. 7. […] (A) CD4+CD45RO− T cells were isolated and cultured in the presence of the indicated enzyme inhibitors for 24 h. T-cell apoptosis was quantified through flow cytometry staining for PI. (B) Cells were maintained in culture without stimulation for 48 h and then were treated with the JNK inhibitor. PI-positive T cells were measured after 24 h of treatment with the JNK inhibitor II (5 μM or 10 μM) or vehicle. Frequencies of apoptotic T cells from 6 controls and 7 RA patients are presented as mean±SEM. (C) Representative flow cytometry results from one control and one patient. (D) Flow cytometry analysis of phosphorylated JNK levels in control and RA T cells after culturing without mitogenic stimulation for 72 h. Representative data from one patient and one control are presented. (E) Expression of pJNK protein in n=6 RA and n=6 control samples at 72 h is given as MFI of FITC-pJNK. (F) Flow cytometry analysis of phosphorylated JNK levels in freshly isolated control and RA naïve CD4 T cells. Expression of pJNK protein in n=7 RA and n=7 control samples at day 0 is given as MFI of FITC-pJNK. (G) Quantification of JNK and pJNK protein expression at 72 h by Western blotting. (H) Relative expression levels of pJNK were quantified by measuring band intensities adjusted by total JNK in 6 RA patients and 6 control donors. Data are presented as mean±SEM. (I) CD4+CD45RO− T cells were purified from RA donors and transfected with control or DNA-PKcs-specific siRNA oligonucleotides by nucleofection. Twenty-four hours after transfection, DNA-PKcs and pJNK protein levels were detected by Western blotting. A representative blot from three independent experiments is shown.
# (§2) Peripheral blood mononuclear cells (PBMC) were separated from whole blood with Lymphocyte Separation Medium (Mediatech Inc., Herndon, Va.). CD45RO^− cells were negatively selected with microbeads (Miltenyi Biotec Inc., Auburn, Calif.), and the naïve CD4^+CD45RO^− population was subsequently selected with CD4 microbeads (autoMACS, Miltenyi Biotec Inc.).
# CD4^+CD45RO^− T cells were maintained in a resting state in DMEM without mitogenic stimulation for three days. In selected experiments, T-cell homeostatic cytokines were supplemented. To test for the role of signaling networks in mediating apoptosis, the following inhibitors were added to the cultures at day 0: DNA-PKcs inhibitor IC86621 (Sigma-Aldrich, St. Louis, Mo.), JNK inhibitor II (Calbiochem, La Jolla, Calif.), p38 inhibitor (Alexis Biochemicals, Plymouth Meeting, Pa., SB203580), CaM inhibitor (Calbiochem), NE-KB inhibitor (Calbiochem), and AKT inhibitor (Calbiochem). […]
# [3] = system: CD4+CD45RO− T cells from control donors; test: T-cell apoptosis by flow cytometry staining for PI, control T cells; type: cell-based, human
# Description: as §1
# as §2, with “Inc.). […]” for “Inc.).”
# To quantify T-cell apoptosis, CD4^+CD45RO^− cells were washed and suspended in 500 μl FACS buffer supplemented with EasyComp Blank Particles (Spherotech, Lake Forest, Ill.). Uptake of PI (Sigma-Aldrich) was determined by flow cytometry. Apoptotic cells were detected with PE-Annexin V (BD Biosciences, San Jose, Calif.) and 7-AAD (BD Biosciences).
structure (smiles),measurement,setting,value
"CC(=O)c1ccc(N2CCOCC2)cc1O [IC86621, 1-(2-hydroxy-4-morpholin-4-ylphenyl)ethanone]",activity against cyclin-dependent kinase 2,[1],neither activity
same,"protection of RA T cells from apoptosis, dose dependence","[2]; 50 nM, 100 nM",dose-dependent
same,doses at which T cell survival was improved,[2]; RA T cells,50 to 100 nM
same,survival rates among RA T cells,"[2]; RA T cells, 48 h culture then inhibitor (50 nM, 100 nM) for 24 h, PI-positive cells",improved survival rates
same,dose sufficient to normalize apoptotic susceptibility (PI-positive cells reduced to levels of control T cells),"[2]; RA T cells, 72 h ex vivo culture",100 nM
same,apoptotic control T cells,"[3]; after 72 h of ex vivo culture, independent from treatment with the inhibitor",12-14%
same,survival in control T cells,"[3]; control T cells, inhibitor 50 nM, 100 nM for 24 h",essentially did not affect survival
